Drawing on ChEMBL document CHEMBL1134877, “Design, synthesis and biological activity of carbohydrate-containing peptidomimetics as new ligands for the human tachykinin NK-2 receptor” (Bioorg Med Chem Lett, 2002), this text covers Ki and pKB for 14 compounds.

Bounds are passed on as bounds.

For one test, the target named is T1, Substance-K receptor (Homo sapiens, UniProt P21452).
T1 sequence (P21452 whole entry): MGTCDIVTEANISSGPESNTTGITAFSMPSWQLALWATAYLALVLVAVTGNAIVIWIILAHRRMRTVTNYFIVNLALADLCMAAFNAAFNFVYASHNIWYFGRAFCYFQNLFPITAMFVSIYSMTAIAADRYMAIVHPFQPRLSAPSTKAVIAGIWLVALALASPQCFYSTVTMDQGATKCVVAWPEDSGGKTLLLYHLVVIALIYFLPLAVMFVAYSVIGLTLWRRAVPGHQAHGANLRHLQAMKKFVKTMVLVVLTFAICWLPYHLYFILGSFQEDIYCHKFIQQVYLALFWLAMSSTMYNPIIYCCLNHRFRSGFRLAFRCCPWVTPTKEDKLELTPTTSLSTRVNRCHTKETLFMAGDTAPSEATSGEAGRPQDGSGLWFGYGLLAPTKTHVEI
The test can be described thus: Displacement of [125I]NKA from human Tachykinin receptor 2 expressed in CHO cells. Format: cell-based. On the technique in general: Displacement assays read how much labelled ligand stays bound in the presence of the test substance.
For the compound `CCOC(=O)C1=C(C)OC2OC(CO)C(OCc3ccccc3)C(O)C2[S+]1[O-]` (stereo not given), the Ki (in general, the dissociation constant of the complex between target and ligand, obtained from inhibition or displacement) is > 10 µM.

With `CCOC(=O)C1=C(C)OC2OC(COCc3ccccc3)C(O)C(OCc3ccccc3)C2[S+]1[O-]` (stereo not given), the Ki was > 10 µM.

For the compound `CCOC(=O)C1=C(C)OC2OC(COCc3ccccc3)C(OCc3ccccc3)C(OCc3ccccc3)C2[S+]1[O-]` (stereo not given), the inhibitory constant (Ki) is 0.25 µM. This lies in the sub-micromolar range.

Turning to `O=C(C1=C(c2ccccc2)OC2OC(COCc3ccccc3)C(OCc3ccccc3)C(OCc3ccccc3)C2[S+]1[O-])c1ccccc1` (stereo not given), the affinity, expressed as Ki, was 0.79 µM.

Regarding `O=C(C1=C(c2ccccc2)OC2OC(COCc3ccccc3)C(OCc3ccccc3)C(OCc3ccccc3)C2S1)c1ccccc1` (stereo not given), the Ki is > 10 µM.

`CCOC(=O)C1=C(C)OC2OC(COCc3ccccc3)C(OCc3ccccc3)C(OCc3ccccc3)C2S1` (stereo not given): the Ki was determined as 12.6 µM. In other words, the double-digit micromolar range.

For the compound `CC1=C(C(=O)Oc2ccccc2)[S+]([O-])C2C(O1)OC(COCc1ccccc1)C(OCc1ccccc1)C2OCc1ccccc1` (stereo not given), affinity was put at a Ki of 0.4 µM.

Consider `CC1=C(C(=O)Oc2ccccc2)SC2C(O1)OC(COCc1ccccc1)C(OCc1ccccc1)C2OCc1ccccc1` (stereo not given), for which the inhibitory constant (Ki) is > 10 µM.

For the compound `CCOC(=O)C1=C(C)OC2OC(COCc3ccccc3)C(OCc3ccccc3)C(O)C2[S+]1[O-]` (stereo not given), the affinity corresponds to a Ki of 0.79 µM.

Turning to `O=C(C1=C(c2ccccc2)OC2OC(COCc3ccccc3)C(OCc3ccccc3)C(OCc3ccccc3)C2S1(=O)=O)c1ccccc1` (stereo not given), the inhibition constant (Ki) stood at 5.01 µM.

`CCOC(=O)C1=C(C)OC2OC(COCc3ccccc3)C(OCc3ccccc3)C(O)C2S1` (stereo not given): affinity was put at a Ki of 12.6 µM.

Regarding `CCOC(=O)C1=C(C)OC2OC(CO)C(OCc3ccccc3)C(OCc3ccccc3)C2S1` (stereo not given), the inhibition constant (Ki) worked out at 4 µM. This Ki is about 3.1-fold lower than that of the compound before.

On to `CCOC(=O)C1=C(C)OC2OC(CO)C(OCc3ccccc3)C(OCc3ccccc3)C2[S+]1[O-]` (stereo not given), for which affinity was put at a Ki of 4 µM. In other words, the single-digit micromolar range.

In the case of `CCOC(=O)C1=C(C)OC2OC(CO)C(OCc3ccccc3)C(O)C2S1` (stereo not given), the Ki was > 10 µM.

The species entered for another test is Oryctolagus cuniculus. In words: Antagonist activity on isolated endothelium-deprived rabbit pulmonary artery preparations when evaluated against a contractile concentration response curve to NKA. Format: functional.
Consider `CCOC(=O)C1=C(C)OC2OC(COCc3ccccc3)C(OCc3ccccc3)C(OCc3ccccc3)C2[S+]1[O-]` (stereo not given), for which the pKB (usually the KB on a negative log10 scale, so that one unit is a factor of ten) came to 6.
